Laboratory results from patent publication US20250101017A1, “SALT CRYSTAL FORM AND FREE BASE CRYSTAL FORM OF KINASE INHIBITOR” (CYTOSINLAB THERAPEUTICS CO., LTD., priority 2022, published 2025).
≈ marks a conversion by molar mass, not a printed value.

Assays:
Type in all cases: physicochemical
[1] = Solubility of crystal form Form T in different solutions at 37° C. (about 60 mg in 2 mL, 2 h and 24 h; HPLC, pH, XRPD)
Method: Approximately 60 mg of the sample was weighed and added into a 4 mL bottle, and 2 mL of different solvents (water, pH 1.0, 3.0, 5.0, 7.0, 9.0, FaSSIF, FeSSIF, and SGF) were added and the mixtures were stirred at 37° C. for 24 h after adding magnetic stirring bar. Samples were taken at 2 and 24 h respectively. After filtration, the sample concentration in the filtrate was tested by HPLC, and the pH value of the filtrate and the XRPD of the remaining solid were also measured. The measured solubility of the sample in different solutions was as follows.

[2] = Solubility at 37° C. in buffer solutions with different pH (about 10 mg in 1 ml, 2 h and 24 h); filtrate concentration and pH, XRPD of remaining solid; conditions: for solubility at 2 h / solubility at 24 h: 37 °C, thermodynamic from solid; for solubility at 2 h: read-out: Solubility at 37° C. (mg/ml) 2 h; for solubility at 24 h: read-out: Solubility at 37° C. (mg/ml) 24 h; for pH (24 h): filtrate
Method: Approximately 10 mg of malate crystal form VII-A and free base Form A were weighed separately, and 1 ml of buffer solutions with different pH were added to make the solution supersaturated, and the mixtures were stirred at 37° C. for 2 h and 24 hours. The samples were filtered, and the filtrates were measured to determine the concentration and pH value, and the remaining solid was subjected to XRPD determination. The specific results were as follows: […]

[3] = Solid stability of crystal forms (80° C., light exposure, 25° C./60% RH, 40° C./75% RH); purity by liquid chromatography and XRPD of the solids; conditions: for Crystal form: XRPD
Method: A certain amount of API and malate crystal form VII-A were weighed and added into a liquid phase vial, and a total of 9 parallels were prepared. The 9 parallels were placed separately in 80° C. (open); 25° C., 60% RH (open); 40° C., 75% RH (open); and light stability box closed). The stabilities under conditions of: 80° C. for one day, light exposure for 10 days, as well as 25° C., 60% RH and 40° C., 75% RH for one and two weeks were tested, and the XRPD of the solids were measured.
A certain amount of crystal form B was weighed and added into a liquid phase vial, and a total of 9 parallels were prepared. 9 parallels were placed separately in 80° C.; 25° C., 60% RH, 40° C., 75% RH; and light stability boxe.

Structure (SMILES): CCc1nc2c(N)ncc(-c3ccc(N4CCC(N5CCN(CC)CC5)CC4)c(OC)c3)c2nc1NC1CCOCC1 [Form T, 3-ethyl-8-(4-(4-(4-ethylpiperazin-1-yl)piperidin-1-yl)-3-methoxyphenyl)-N2-(tetrahydro-2H-pyran-4-yl) pyridino [3,4-b]pyrazine-2,5-diamine]
- pH ([1]; FaSSIF, filtrate, 2 h): 6.72
- pH ([1]; FaSSIF, filtrate, 24 h): 6.73
- pH ([1]; FeSSIF, filtrate, 2 h): 6.50
- pH ([1]; FeSSIF, filtrate, 24 h): 6.50
- pH ([1]; SGF, filtrate, 2 h): 6.20
- pH ([1]; SGF, filtrate, 24 h): 6.22
- pH of the solution compared to the initial pH value ([1]; other solvents (water, pH 7.0, pH 9.0, FaSSIF)): did not change significantly
- crystal form of remaining solid ([1]; other solvents (water, pH 7.0, pH 9.0, FaSSIF), XRPD): did not change
- pH ([1]; pH 1.0, filtrate, 2 h): 5.13
- pH ([1]; pH 1.0, filtrate, 24 h): 5.17
- pH of the filtrate compared to the initial pH value of the buffer solution ([1]; pH 1.0, pH 3.0, pH 5.0, FeSSIF, and SGF): significant changes
- solubility at 2 h ([1]; pH 1.0 solution, simulated gastric fluid, thermodynamic from solid, pH 1.0, 37° C., 2 h): 28000 µg/mL (≈ 48.7 mM)
- solubility at 24 h ([1]; pH 1.0 solution, simulated gastric fluid, thermodynamic from solid, pH 1.0, 37° C., 24 h): 29300 µg/mL (≈ 51 mM)
- pH ([1]; pH 3.0, filtrate, 2 h): 6.51
- pH ([1]; pH 3.0, filtrate, 24 h): 6.52
- solubility at 2 h ([1]; pH 3.0 solution, aqueous buffer, thermodynamic from solid, pH 3.0, 37° C., 2 h): 23100 µg/mL (≈ 40.2 mM)
- solubility at 24 h ([1]; pH 3.0 solution, aqueous buffer, thermodynamic from solid, pH 3.0, 37° C., 24 h): 23200 µg/mL (≈ 40.4 mM)
- pH ([1]; pH 5.0, filtrate, 2 h): 6.66
- pH ([1]; pH 5.0, filtrate, 24 h): 6.67
- solubility ([1]; pH 5.0 solution, aqueous buffer, thermodynamic from solid, 37° C., pH 5.0): ~8000 µg/mL (≈ 13.9 mM)
- solubility at 2 h ([1]; pH 5.0 solution, aqueous buffer, thermodynamic from solid, pH 5.0, 37° C., 2 h): 8370 µg/mL (≈ 14.6 mM)
- solubility at 24 h ([1]; pH 5.0 solution, aqueous buffer, thermodynamic from solid, pH 5.0, 37° C., 24 h): 8170 µg/mL (≈ 14.2 mM)
- pH ([1]; pH 7.0, filtrate, 2 h): 6.99
- pH ([1]; pH 7.0, filtrate, 24 h): 6.98
- solubility at 2 h ([1]; pH 7.0 solution, aqueous buffer, thermodynamic from solid, pH 7.0, 37° C., 2 h): 60 µg/mL (≈ 0.104 mM)
- solubility at 24 h ([1]; pH 7.0 solution, aqueous buffer, thermodynamic from solid, pH 7.0, 37° C., 24 h): 60 µg/mL (≈ 0.104 mM)
- pH ([1]; pH 9.0, filtrate, 2 h): 8.77
- pH ([1]; pH 9.0, filtrate, 24 h): 8.79
- solubility at 2 h ([1]; pH 9.0 solution, aqueous buffer, thermodynamic from solid, pH 9.0, 37° C., 2 h): 2 µg/mL (≈ 0.00348 mM)
- solubility at 24 h ([1]; pH 9.0 solution, aqueous buffer, thermodynamic from solid, pH 9.0, 37° C., 24 h): 2 µg/mL (≈ 0.00348 mM)
- solubility at 2 h ([1]; simulated gastric fluid, thermodynamic from solid, SGF, 37° C., 2 h): 27600 µg/mL (≈ 48.1 mM)
- solubility at 24 h ([1]; simulated gastric fluid, thermodynamic from solid, SGF, 37° C., 24 h): 27300 µg/mL (≈ 47.5 mM)
- solubility ([1]; solutions: pH 1.0, thermodynamic from solid, 37° C., pH 1.0, pH 3.0, FeSSIF, and SGF): > 18000 µg/mL
- solubility ([1]; thermodynamic from solid, 37° C., water, pH 7.0, pH 9.0, and FaSSIF): < 700 µg/mL
- solubility at 2 h ([1]; thermodynamic from solid, FaSSIF, 37° C., 2 h): 670 µg/mL (≈ 1.17 mM)
- solubility at 24 h ([1]; thermodynamic from solid, FaSSIF, 37° C., 24 h): 700 µg/mL (≈ 1.22 mM)
- solubility at 2 h ([1]; thermodynamic from solid, FeSSIF, 37° C., 2 h): 18900 µg/mL (≈ 32.9 mM)
- solubility at 24 h ([1]; thermodynamic from solid, FeSSIF, 37° C., 24 h): 18700 µg/mL (≈ 32.5 mM)
- solubility at 2 h ([1]; thermodynamic from solid, water, 37° C., 2 h): 2 µg/mL (≈ 0.00348 mM)
- solubility at 24 h ([1]; thermodynamic from solid, water, 37° C., 24 h): 3 µg/mL (≈ 0.00522 mM)
- pH ([1]; water, filtrate, 2 h): 7.20
- pH ([1]; water, filtrate, 24 h): 7.12

Structure (SMILES): CCc1nc2c(N)ncc(-c3ccc(N4CCC(N5CCN(CC)CC5)CC4)c(OC)c3)c2nc1NC1CCOCC1 [Malate crystal form VII-A]
- solubility at 2 h ([2]; FeSSIF, fessif, medium FeSSIF, 2 h): > 10 mg/mL
- solubility at 24 h ([2]; FeSSIF, fessif, medium FeSSIF, 24 h): > 10 mg/mL
- solubility at 2 h ([2]; SGF, simulated gastric fluid, medium SGF, 2 h): > 10 mg/mL
- solubility at 24 h ([2]; SGF, simulated gastric fluid, medium SGF, 24 h): > 10 mg/mL
- pH (24 h) ([2]; medium FaSSIF): 6.524
- pH (24 h) ([2]; medium FeSSIF): 5.796
- pH (24 h) ([2]; medium H2O): 7.026
- pH (24 h) ([2]; medium SGF): 1.644
- pH (24 h) ([2]; medium pH 1.2): 1.605
- pH (24 h) ([2]; medium pH 3.0): 4.601
- pH (24 h) ([2]; medium pH 4.5): 5.468
- pH (24 h) ([2]; medium pH 6.8): 6.775
- pH (24 h) ([2]; medium pH 7.4): 7.389
- Solubility at 37° C. (mg/ml) 2 h ([2]; medium FaSSIF, 2 h): >10 mg/mL
- Solubility at 37° C. (mg/ml) 24 h ([2]; medium FaSSIF, 24 h): >10 mg/mL
- Solubility at 37° C. (mg/ml) 2 h ([2]; medium H2O, 2 h): >10 mg/mL
- Solubility at 37° C. (mg/ml) 24 h ([2]; medium H2O, 24 h): >10 mg/mL
- Solubility at 37° C. (mg/ml) 2 h ([2]; medium pH 1.2, 2 h): >10 mg/mL
- Solubility at 37° C. (mg/ml) 24 h ([2]; medium pH 1.2, 24 h): >10 mg/mL
- Solubility at 37° C. (mg/ml) 2 h ([2]; medium pH 3.0, 2 h): >10 mg/mL
- Solubility at 37° C. (mg/ml) 24 h ([2]; medium pH 3.0, 24 h): >10 mg/mL
- Solubility at 37° C. (mg/ml) 2 h ([2]; medium pH 4.5, 2 h): >10 mg/mL
- Solubility at 37° C. (mg/ml) 24 h ([2]; medium pH 4.5, 24 h): >10 mg/mL
- Solubility at 37° C. (mg/ml) 2 h ([2]; medium pH 6.8, 2 h): >10 mg/mL
- Solubility at 37° C. (mg/ml) 24 h ([2]; medium pH 6.8, 24 h): >10 mg/mL
- Solubility at 37° C. (mg/ml) 2 h ([2]; medium pH 7.4, 2 h): >10 mg/mL
- Solubility at 37° C. (mg/ml) 24 h ([2]; medium pH 7.4, 24 h): >10 mg/mL
- Degradation (%) ([3]; 25° C., 60% RH (open), 1 week): 0.03%
- Purity (%) ([3]; 25° C., 60% RH (open), 1 week): 95.81%
- Crystal form ([3]; 25° C., 60% RH (open), 1 week): Unchanged
- Degradation (%) ([3]; 25° C., 60% RH (open), 2 weeks): 0.32%
- Purity (%) ([3]; 25° C., 60% RH (open), 2 weeks): 95.52%
- Crystal form ([3]; 25° C., 60% RH (open), 2 weeks): Unchanged
- Degradation (%) ([3]; 40° C., 75% RH (open), 1 week): 0.13%
- Purity (%) ([3]; 40° C., 75% RH (open), 1 week): 95.71%
- Crystal form ([3]; 40° C., 75% RH (open), 1 week): Unchanged
- Degradation (%) ([3]; 40° C., 75% RH (open), 2 weeks): 1.06%
- Purity (%) ([3]; 40° C., 75% RH (open), 2 weeks): 94.78%
- Crystal form ([3]; 40° C., 75% RH (open), 2 weeks): Unchanged
- Degradation (%) ([3]; 80° C. (open), 1 day): 0.62%
- Purity (%) ([3]; 80° C. (open), 1 day): 95.22%
- Crystal form ([3]; 80° C. (open), 1 day): Unchanged
- Degradation (%) ([3]; Light contral, 10 days): 0.05%
- Purity (%) ([3]; Light contral, 10 days): 95.79%
- Crystal form ([3]; Light contral, 10 days): Unchanged
- Degradation (%) ([3]; Light exposure, 10 days): 6.67%
- Purity (%) ([3]; Light exposure, 10 days): 89.17%
- Crystal form ([3]; Light exposure, 10 days): Unchanged
- Purity (%) ([3]; initial): 95.84%
- Degradation ([3]; light exposure and 40° C., 75% RH): varying degrees of degradation
